The nature of data set [1]: Pharmacokinetic study, plasma level 2 hours after oral dosing in rats. The class given is in vivo. The method, then:
Pharmacokinetic studies were conducted to determine absorption and distribution profiles of the disclosed compounds which were orally administered to rats.
Compounds were formulated in a 1% DMA/99% Vitamin E TPGS vehicle. Prepared compounds were dosed via oral gavage (PO). Following the appropriate pretreatment time of 2 hours, rats were anesthetized with isoflurane gas. Blood was collected into tubes containing EDTA via retro-orbital eye bleed. Whole blood was spun in a micro-centrifuge at approximately 13,000 rpm for 5 minutes at room temperature. Separated plasma was subsequently aliquoted into eppendorf tubes. Samples were stored at −80° C. until prepped for analysis.
Plasma samples were thawed and the required amount of plasma for standards, blanks and dilutions were made. The dilutions were prepared before plating. Preparation of crash solution included cold acetonitrile+0.1% formic acid and 25 ng/mL of a FAAH inhibitor used as internal standard. solvent standards of the FAAH inhibitor being studied were preparation at 10, 30, 100, 300, 1000, 3000, 10000, 30000, 100000, and 300000 ng/mL in DMSO. Then a plasma standard curve was generated from the solvent standards (final concentrations of standards in plasma were: 0.1, 0.3, 1, 3, 10, 30, 100, 300, 1000, 3000 ng/mL). 50 μL of each plasma sample/dilution, standard, or blank was transferred into 96-well plates. To each well, 200 μL of cold crash solution was added. The plate was covered and gently vortexed. The plate was centrifuged at 3500 rpm, 4° C. for 10 min. 200 μL of each supernatant was transferred into new plates. The plates were dried under nitrogen in a TurboVap at 55° C. The sample in each well was re-suspended with 100 μL of 30% acetonitrile, covered and vortexed gently. The well solutions were analyzed by the LC/MS/MS conditions and specifications below.
HPLC column was a Clipeus C8, 2.1×30 mm, 5 μm, with Basic 8 guard column using 20 μL injections. Mobile phase used was mobile phase A: 0.1% Formic Acid in water and mobile phase B: 0.1% Formic Acid in 85:10:5 ACN:IPA:H2O. The flow rate for the run was 0.5 mL/min and the gradient for the 4 minute total run time was: 0.0 minutes

A further data set has as its target T1, hERG channel (Homo sapiens, UniProt Q12809).
T1 construct: expressed in transfected cells; host or cells: CHO (hERG-CHO), under Geneticin selection
The experiment in a line: hERG channel inhibition, automated patch clamp (IonWorks HT, hERG-CHO). The data set is classed as cell-based. The conditions noted are these: CHO cells expressing hERG, 600 s incubation; for inhibition at 600 s, 1 µM: 1 μM compound, read-out: hERG Channel Inhibition % (at 1 μM), vehicle-subtracted values; for inhibition at 600 s, 10 µM: 10 μM compound, read-out: hERG Channel Inhibition % (at 10 μM), vehicle-subtracted values. As for the experimental part:
Human ether-a-gogo-related (hERG) ion channel encodes the inward rectifying voltage gated potassium channel in the heart and has a major role during the repolarization of the cardiac action potential. It is well established that blockade of this ion channel can lead to potentially lethal arrhythmias. hERG pre-clinical safety data is often used by regulatory agencies in elucidate the toxicity profile of certain compositions. The disclosed compounds of Table 1 were tested for their ability to inhibit hERG ion channels.
Media components include F12 Nutrient Mixture (Ham) with GlutaMAX™ (Invitrogen, Cat#31765), Fetal Bovine Serum, Certified (Invitrogen, Cat#16000-044—not heat activated), and Geneticin® Selective Antibiotic (Invitrogen, Cat#10131-027).
One vial of frozen cells, at 1.62×10^6 cells are thawed into a T150 flask (BD Falcon 355001) with 40 mL of pre-warmed complete media. Cells are cultured at 37° C., 5% CO2 for four hours prior to gently changing media. 99% of cells appear attached at this time point.
The flask is media changed at 24 hours post-thaw, the cells are imaged, media changed, and returned to the incubator. At this point, the cells appear healthy and about 25% confluent in the flask. Cells are typically passed 24-48 hours after thaw according to the following intervals and densities below. Cells are incubated at 30° C. for 48 hours prior to assay.
Using an automated patch clamp apparatus (IonWorks^HT), a three pulse protocol was applied by stepping from a holding potential of −80 mV to […] for 2 s, to activate hERG channels. The membrane voltage was then stepped back to −50 mV for 2 s to evoke a tail current prior to returning to the holding potential for 1 s. This sequence was repeated a further two times. This voltage protocol was applied prior to drug (Pre compound) and after 600 s in the presence of drug (Post compound).
The amplitude of the hERG tail current was calculated by measuring the difference between the maximum current on stepping to −50 mV of the third pulse (i.e. peak of the outward hERG tail current) and the current measured immediately prior to activation of any hERG current. This parameter was assessed before (pre tail current amplitude) and after 600 s incubation (post tail current amplitude) in drug. In order to assess the amount of block produced by test compounds, the data was first filtered using the IonWorks™ software to exclude any cells where the seal resistance was less than 50 MOhm. The remaining data was then exported to an excel compatible data file and only currents with tail currents greater than 250 pA were analyzed. The post/pre tail current amplitude ratio for the third pulse was calculated for each drug and control, and presented as percent inhibition.
In general terms: The hERG channel carries a current that helps repolarise heart muscle cells.

As usually defined, the inhibition is the relative decrease from the control value, in per cent.

T1 sequence (Q12809 whole entry): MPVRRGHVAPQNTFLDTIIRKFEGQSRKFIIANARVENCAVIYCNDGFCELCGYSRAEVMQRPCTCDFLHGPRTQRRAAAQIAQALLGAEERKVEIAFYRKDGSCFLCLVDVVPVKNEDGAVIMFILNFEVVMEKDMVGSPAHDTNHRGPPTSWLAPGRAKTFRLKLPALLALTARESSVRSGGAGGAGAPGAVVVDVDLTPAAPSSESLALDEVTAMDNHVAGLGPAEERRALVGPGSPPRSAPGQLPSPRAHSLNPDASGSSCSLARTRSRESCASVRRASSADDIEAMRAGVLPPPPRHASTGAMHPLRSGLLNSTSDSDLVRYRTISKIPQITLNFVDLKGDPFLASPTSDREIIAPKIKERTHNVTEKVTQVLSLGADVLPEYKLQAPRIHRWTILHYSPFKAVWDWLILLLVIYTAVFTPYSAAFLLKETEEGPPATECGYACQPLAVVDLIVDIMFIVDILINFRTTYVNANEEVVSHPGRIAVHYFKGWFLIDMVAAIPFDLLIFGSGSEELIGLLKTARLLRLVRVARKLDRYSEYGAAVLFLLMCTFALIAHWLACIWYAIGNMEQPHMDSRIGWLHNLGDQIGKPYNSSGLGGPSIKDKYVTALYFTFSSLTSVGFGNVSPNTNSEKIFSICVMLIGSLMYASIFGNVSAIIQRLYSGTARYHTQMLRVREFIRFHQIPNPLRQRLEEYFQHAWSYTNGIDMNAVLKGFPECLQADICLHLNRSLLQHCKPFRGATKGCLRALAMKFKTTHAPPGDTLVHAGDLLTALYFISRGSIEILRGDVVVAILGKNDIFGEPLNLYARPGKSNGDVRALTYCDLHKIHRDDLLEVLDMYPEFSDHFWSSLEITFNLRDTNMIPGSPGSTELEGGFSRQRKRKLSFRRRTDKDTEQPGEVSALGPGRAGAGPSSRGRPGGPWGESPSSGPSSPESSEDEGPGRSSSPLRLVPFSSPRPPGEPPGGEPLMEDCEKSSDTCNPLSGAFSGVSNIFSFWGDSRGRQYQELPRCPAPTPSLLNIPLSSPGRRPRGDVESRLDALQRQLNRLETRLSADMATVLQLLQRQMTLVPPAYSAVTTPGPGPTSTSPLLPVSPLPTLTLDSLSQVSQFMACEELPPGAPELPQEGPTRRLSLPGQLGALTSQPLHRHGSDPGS

For `Cc1c(C(=O)C(=O)Nc2cccc(Cl)c2)c2cc(O)ccc2n1Cc1ccc(Cl)cc1` [Compound 71, 2-(1-(4-chlorobenzyl)-5-hydroxy-2-methyl-1H-indol-3-yl)-N-(3-chlorophenyl)-2-oxoacetamide], the “2 hr plasma level-ng/mL (rat, 10 mg/kg PO, 2 hr)” value (“2 hr plasma level-ng/mL” for short) in data set [1] is reported as “A (A = Less than 10 nM)”. For the same compound, at hERG channel, the inhibition at 600 s, 1 µM was under 25% and the inhibition at 600 s, 10 µM is under 25%.
`COc1cc(NC(=O)C(=O)c2c(C)n(Cc3ccc(Cl)cn3)c3ccccc23)ccn1` [Compound 68, 2-(1-((5-chloropyridin-2-yl)methyl)-2-methyl-1H-indol-3-yl)-N-(2-methoxypyridin-4-yl)-2-oxoacetamide]: the “2 hr plasma level-ng/mL” value in data set [1] is reported as “D (D = greater than 1000 nM)”. For the same compound, at hERG channel, the inhibition at 600 s, 1 µM is under 25% and the inhibition at 600 s, 10 µM was under 25%.
On to `COc1cc(NC(=O)C(=O)c2c(C)n(Cc3ncc(F)cc3F)c3cc(F)c(OC)cc23)ccn1` [Compound 101, 2-(1-((3,5-difluoropyridin-2-yl)methyl)-6-fluoro-5-methoxy-2-methyl-1H-indol-3-yl)-N-(2-methoxypyridin-4-yl)-2-oxoacetamide], for which, in data set [1], the “2 hr plasma level-ng/mL” value is listed as “D (D = greater than 1000 nM)”. At hERG channel, the inhibition at 600 s, 1 µM is under 25% and the inhibition at 600 s, 10 µM was under 25%.
Take `COc1ccc2c(c1)c(C(=O)C(=O)Nc1cc(OC)ncc1F)c(C)n2Cc1ccc(Cl)cc1` [Compound 54, 2-(1-(4-chlorobenzyl)-5-methoxy-2-methyl-1H-indol-3-yl)-N-(5-fluoro-2-methoxypyridin-4-yl)-2-oxoacetamide]: the “2 hr plasma level-ng/mL” value in data set [1] is “A (A = Less than 10 nM)”. At hERG channel, the inhibition at 600 s, 1 µM was under 25% and the inhibition at 600 s, 10 µM was under 25%.
For `COc1cc(NC(=O)C(=O)c2c(C)n(Cc3ccc(F)cc3F)c3cc(F)c(OC)cc23)ccn1` [Compound 14, 2-(1-(2,4-difluorobenzyl)-6-fluoro-5-methoxy-2-methyl-1H-indol-3-yl)-N-(2-methoxypyridin-4-yl)-2-oxoacetamide], the “2 hr plasma level-ng/mL” value in data set [1] is on record as “D (D = greater than 1000 nM)”. Besides, on hERG channel, the inhibition at 600 s, 1 µM is under 25% and the inhibition at 600 s, 10 µM was under 25%.
In the case of `COc1cc(NC(=O)C(=O)c2c(C)n(Cc3ccc(Cl)cc3)c3ccc(N(C)C)cc23)ccn1` [Compound 17, 2-(1-(4-chlorobenzyl)-5-(dimethylamino)-2-methyl-1H-indol-3-yl)-N-(2-methoxypyridin-4-yl)-2-oxoacetamide], the “2 hr plasma level-ng/mL” value in data set [1] is “C (C = between 100 nM and 1000 nM)”. Also, at hERG channel, the inhibition at 600 s, 1 µM is under 25% and the inhibition at 600 s, 10 µM is under 25%.
With `COc1cc(NC(=O)C(=O)c2c(C)n(Cc3ccc(Cl)cc3)c3ccc(OC)c(F)c23)ccn1` [Compound 59, 2-(1-(4-chlorobenzyl)-4-fluoro-5-methoxy-2-methyl-1H-indol-3-yl)-N-(2-methoxypyridin-4-yl)-2-oxoacetamide], the “2 hr plasma level-ng/mL” value in data set [1] was “C (C = between 100 nM and 1000 nM)”. Also, at hERG channel, the inhibition at 600 s, 1 µM was under 25% and the inhibition at 600 s, 10 µM fell in the range of 25 to 50%.
As for `COc1cc(NC(=O)C(=O)c2c(C)n(Cc3ccc(Cl)cc3)c3cc(F)c(OC)cc23)ccn1` [Compound 72, 2-(1-(4-chlorobenzyl)-6-fluoro-5-methoxy-2-methyl-1H-indol-3-yl)-N-(2-methoxypyridin-4-yl)-2-oxoacetamide], the “2 hr plasma level-ng/mL” value in data set [1] is “C (C = between 100 nM and 1000 nM)”. Further, on hERG channel, the inhibition at 600 s, 1 µM was under 25% and the inhibition at 600 s, 10 µM fell in the range of 25 to 50%.
For `COc1cc(NC(=O)C(=O)c2c(C)n(Cc3ccc(Cl)cc3)c3cc(Cl)c(OC)cc23)ccn1` [Compound 55, 2-(6-chloro-1-(4-chlorobenzyl)-5-methoxy-2-methyl-1H-indol-3-yl)-N-(2-methoxypyridin-4-yl)-2-oxoacetamide], in data set [1], the “2 hr plasma level-ng/mL” value is “C (C = between 100 nM and 1000 nM)”. Moreover, on hERG channel, the inhibition at 600 s, 1 µM was under 25% and the inhibition at 600 s, 10 µM is under 25%.
`COc1cc(NC(=O)C(=O)c2c(C)n(Cc3ncc(Cl)cc3Cl)c3ccc(C)cc23)ccn1` [Compound 30, 2-(1-((3,5-dichloropyridin-2-yl)methyl)-2,5-dimethyl-1H-indol-3-yl)-N-(2-methoxypyridin-4-yl)-2-oxoacetamide]: the “2 hr plasma level-ng/mL” value in data set [1] was “C (C = between 100 nM and 1000 nM)”. Further, at hERG channel, the inhibition at 600 s, 1 µM was under 25% and the inhibition at 600 s, 10 µM lay within 50 to 75%.
For the compound `COc1cc(NC(=O)C(=O)c2c(C)n(Cc3ccc(Cl)cn3)c3cc(OC)c(Cl)cc23)ccn1` [Compound 67, 2-(5-chloro-1-((5-chloropyridin-2-yl)methyl)-6-methoxy-2-methyl-1H-indol-3-yl)-N-(2-methoxypyridin-4-yl)-2-oxoacetamide], in data set [1], the “2 hr plasma level-ng/mL” value is reported as “D (D = greater than 1000 nM)”. Besides, at hERG channel, the inhibition at 600 s, 1 µM was under 25% and the inhibition at 600 s, 10 µM is under 25%.
For the compound `COc1cc(NC(=O)C(=O)c2c(C)n(Cc3ncc(Cl)cc3Cl)c3cc(F)c(OC)cc23)ccn1` [Compound 13, 2-(1-((3,5-dichloropyridin-2-yl)methyl)-6-fluoro-5-methoxy-2-methyl-1H-indol-3-yl)-N-(2-methoxypyridin-4-yl)-2-oxoacetamide], in data set [1], the “2 hr plasma level-ng/mL” value was “C (C = between 100 nM and 1000 nM)”. At hERG channel, the inhibition at 600 s, 1 µM is under 25% and the inhibition at 600 s, 10 µM is under 25%.
For `COc1cc(NC(=O)C(=O)c2c(C)n(Cc3ccc(Cl)cn3)c3cc(Cl)c(OC)cc23)ccn1` [Compound 60, 2-(6-chloro-1-((5-chloropyridin-2-yl)methyl)-5-methoxy-2-methyl-1H-indol-3-yl)-N-(2-methoxypyridin-4-yl)-2-oxoacetamide], in data set [1], the “2 hr plasma level-ng/mL” value was “D (D = greater than 1000 nM)”. On hERG channel, the inhibition at 600 s, 1 µM was under 25% and the inhibition at 600 s, 10 µM was in the range of 25 to 50%.
For the compound `COc1ccc(Cn2c(C)c(C(=O)C(=O)Nc3ccnc(OC)c3)c3cc(OC)c(Cl)cc32)nc1` [Compound 98, 2-(6-chloro-5-methoxy-1-((5-methoxypyridin-2-yl)methyl)-2-methyl-1H-indol-3-yl)-N-(2-methoxypyridin-4-yl)-2-oxoacetamide], the “2 hr plasma level-ng/mL” value in data set [1] was “C (C = between 100 nM and 1000 nM)”. Further, on hERG channel, the inhibition at 600 s, 1 µM was under 25% and the inhibition at 600 s, 10 µM was under 25%.
For `COc1cc(NC(=O)C(=O)c2c(C)n(Cc3ncc(Cl)cc3F)c3cc(Cl)c(OC)cc23)ccn1` [Compound 97, 2-(6-chloro-1-((5-chloro-3-fluoropyridin-2-yl)methyl)-5-methoxy-2-methyl-1H-indol-3-yl)-N-(2-methoxypyridin-4-yl)-2-oxoacetamide], in data set [1], the “2 hr plasma level-ng/mL” value was “C (C = between 100 nM and 1000 nM)”. Also, on hERG channel, the inhibition at 600 s, 1 µM was under 25% and the inhibition at 600 s, 10 µM is under 25%.

The record behind these values is patent US20150175599A1, “FAAH Inhibitors” (Ironwood Pharmaceuticals, Inc., priority 2010, published 2015).
